In patent publication US20240216458A1, “Composition for the prevention, improvement or treatment of allergic diseases comprising an extract of Cassia mimosoides L. as an active ingredient” (KOREA INSTITUTE OF SCIENCE AND TECHNOLOGY, priority 2022, published 2024):

Columns and labels:
Assay type in all cases: cell-based, rat
Conditions in all cases: compound 20 μM
RBL-2H3 mast cells [1] = experiment: Interleukin-4 production secreted by mast cells (ELISA)
Procedure: (§1) First, RBL-2H3 mast cells were seeded at 2×10^5 cells/well in a 24-well microtiter plate containing Dulbecco's Modified Eagle's Media (DMEM) medium containing 2.5% fetal bovine serum, and cultured until they grew to 80% confluence. Afterwards, ethanol extract of Cassia mimosoides L. prepared in <Example 1> was added to serum-free DMEM medium at a concentration of 20 μg/ml and 40 μg/ml, respectively, and mast cells were cultured for 24 hours. After treating mast cells with DNP-BSA for 30 minutes, the cell culture fluid was collected, centrifuged, and only the supernatant was harvested. The amount of interleukin-4 in the supernatant was confirmed using an ELISA kit (Invitrogen, USA).
Mast cells were cultured in the same manner as in Example 5, and then treated with 17 compounds isolated in Example 12 at a concentration of 20 μM, respectively.

RBL-2H3 mast cells [2] = experiment: Prostaglandin E2 production secreted by mast cells (ELISA)
Procedure: as §1, with “prostaglandin E2” for “interleukin-4”, “(R&D systems,” for “(Invitrogen,”
Mast cells were cultured in the same manner as in Example 6, and then treated with 17 compounds isolated in Example 12 at a concentration of 20 μM, respectively.

RBL-2H3 mast cells [3] = experiment: TNF-α production secreted by mast cells (ELISA)
Procedure: as §1, with “TNF-α” for “interleukin-4”
Mast cells were cultured in the same manner as in Example 4, and then treated with 17 compounds isolated in Example 12 at a concentration of 20 μM, respectively.

RBL-2H3 mast cells [4] = experiment: Secretion of allergens in mast cell granules (beta-hexosaminidase activity, degranulation) after DNP-BSA stimulation
Procedure: First, rat basophilic leukocyte (RBL-2H3, American Type Culture Collection, USA) mast cells were cultured in minimal medium containing antibiotics and 10% bovine serum. After culturing, the cells were collected with trypsin, placed in a 24-well microtiter plate at 2×10^5 cells/well, and cultured until they grew to 80% confluence. The medium was replaced with PIPES buffer (25 mM PIPES, PH 7.2, 159 mM NaCl, 5 mM KCl, 0.4 mM MgCl2, 1 mM CaCl2), 5.6 mM glucose, and 0.1% BSA) for the cultured cells, and then ethanol extract of Cassia mimosoides L. prepared in <Example 1> was added to concentrations of 20 μg/ml and 40 μg/ml, respectively, and cultured for 1 hour. […]
The degree of secretion of allergy-inducing substances was determined by measuring the activity of beta-hexosaminidase, a marker of degranulation secreted in the medium, and the activity of beta-hexosaminidase was determined as the amount of p-nitrophenol liberated from p-nitrophenyl-acetyl-β-D-glucosaminide (Funaba M. et al., Cell Biol. Int., 27:879-85, 2003). […]
The degree of allergen secretion was determined by measuring the activity of β-hexosaminidase, a marker of degranulation, which was secreted in the medium, and the activity of β-hexosaminidase was determined as the amount of p-nitrophenyl liberated from p-nitrophenyl-acetyl-β-D-glucosaminide (Funaba M. et al, Cell Biol. Int., 27:879-85, 2003). […]

RBL-2H3 mast cells [5] = experiment: Histamine production secreted by mast cells (EIA kit)
Procedure: as §1, with “histamine” for “interleukin-4”, “EIA” for “ELISA”, “(Bertin Pharma, France).” for “(Invitrogen, USA).”
Mast cells were cultured in the same manner as in Example 3, and then treated with 17 compounds isolated in Example 12 at a concentration of 20 μM, respectively.

Oc1ccc2c(c1)OC(c1ccc(O)c(O)c1)C[C@H]2c1c(O)cc(O)c2c1OC(c1ccc(O)c(O)c1)[C@@H](O)C2 (stereo partly drawn) [KA-1, (2S)-3′,4′,7-trihydroxyflavan-(4 β - >8)-catechin]
excellent efficacy: production of interleukin-4 secreted by mast cells (RBL-2H3 mast cells [1]) | production of prostaglandin E2 secreted by mast cells (RBL-2H3 mast cells [2]) | production of TNF-α secreted by mast cells (RBL-2H3 mast cells [3]) | mast cell degranulation (RBL-2H3 mast cells [4]) | production of histamine secreted by mast cells (RBL-2H3 mast cells [5])

Oc1ccc2c(c1)OC(c1ccc(O)c(O)c1)CC2c1c(O)cc(O)c2c1OC(c1ccc(O)c(O)c1)[C@@H](O)C2 (stereo partly drawn) [KA-2, (2S)-3′,4′,7-trihydroxyflavan-(4 α - >8)-catechin]
excellent efficacy: production of interleukin-4 secreted by mast cells (RBL-2H3 mast cells [1]) | production of prostaglandin E2 secreted by mast cells (RBL-2H3 mast cells [2]) | production of TNF-α secreted by mast cells (RBL-2H3 mast cells [3]) | mast cell degranulation (RBL-2H3 mast cells [4]) | production of histamine secreted by mast cells (RBL-2H3 mast cells [5])
